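Each compound was tested at five concentrations against cells in 96-well plates for 48 hours. The concentration for full growth arrest is given as TGI.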
Tests used:
Experiment in all cases: growth of human tumour cells (NCI), 48 h
786-0 renal = system: 786-0 renal
A498 renal = system: A498 renal
A549 NSCLC = system: A549 NSCLC
ACHN renal = system: ACHN renal
CAKI-1 renal = system: CAKI-1 renal
CCRF-CEM leukemia = system: CCRF-CEM leukemia
COLO 205 colon = system: COLO 205 colon
DU-145 prostate = system: DU-145 prostate
EKVX NSCLC = system: EKVX NSCLC
HCC-2998 colon = system: HCC-2998 colon
HCT-116 colon = system: HCT-116 colon
HCT-15 colon = system: HCT-15 colon
HL-60(TB) leukemia = system: HL-60(TB) leukemia
HOP-62 NSCLC = system: HOP-62 NSCLC
HOP-92 NSCLC = system: HOP-92 NSCLC
HS 578T breast = system: HS 578T breast
HT29 colon = system: HT29 colon
IGROV1 ovarian = system: IGROV1 ovarian
KM12 colon = system: KM12 colon
LOX IMVI melanoma = system: LOX IMVI melanoma
M14 melanoma = system: M14 melanoma
MCF7 breast = system: MCF7 breast
MDA-MB-231 breast = system: MDA-MB-231 breast
MDA-MB-435 = system: MDA-MB-435
MDA-N = system: MDA-N
MOLT-4 leukemia = system: MOLT-4 leukemia
NCI-H23 lung = system: NCI-H23 lung
NCI-H460 lung = system: NCI-H460 lung
NCI-H522 lung = system: NCI-H522 lung
NCI/ADR-RES ovarian = system: NCI/ADR-RES ovarian
OVCAR-3 ovarian = system: OVCAR-3 ovarian
OVCAR-4 ovarian = system: OVCAR-4 ovarian
OVCAR-5 ovarian = system: OVCAR-5 ovarian
OVCAR-8 ovarian = system: OVCAR-8 ovarian
PC-3 prostate = system: PC-3 prostate
RPMI-8226 leukemia = system: RPMI-8226 leukemia
SF-268 CNS = system: SF-268 CNS
SF-295 CNS = system: SF-295 CNS
SF-539 CNS = system: SF-539 CNS
SK-MEL-2 melanoma = system: SK-MEL-2 melanoma
SK-MEL-28 melanoma = system: SK-MEL-28 melanoma
SK-MEL-5 melanoma = system: SK-MEL-5 melanoma
SN12C renal = system: SN12C renal
SNB-19 CNS = system: SNB-19 CNS
SNB-75 CNS = system: SNB-75 CNS
SR leukemia = system: SR leukemia
SW-620 colon = system: SW-620 colon
T-47D breast = system: T-47D breast
TK-10 renal = system: TK-10 renal
U251 CNS = system: U251 CNS
UACC-257 melanoma = system: UACC-257 melanoma
UACC-62 melanoma = system: UACC-62 melanoma
UO-31 renal = system: UO-31 renal
K-562 leukemia = system: K-562 leukemia
MALME-3M melanoma = system: MALME-3M melanoma
NCI-H226 lung = system: NCI-H226 lung
RXF 393 renal = system: RXF 393 renal
SK-OV-3 ovarian = system: SK-OV-3 ovarian

O=C(/C=C/c1ccc(Cl)c(Cl)c1)Oc1ccc(/C=C2\CCCCC2=O)cc1
TGI (786-0 renal): > 100 µM
TGI (A498 renal): > 100 µM
TGI (A549 NSCLC): > 100 µM
TGI (ACHN renal): > 100 µM
TGI (CAKI-1 renal): > 100 µM
TGI (CCRF-CEM leukemia): > 100 µM
TGI (COLO 205 colon): > 100 µM
TGI (DU-145 prostate): > 100 µM
TGI (EKVX NSCLC): > 100 µM
TGI (HCC-2998 colon): > 100 µM
TGI (HCT-116 colon): > 100 µM
TGI (HCT-15 colon): > 100 µM
TGI (HL-60(TB) leukemia): > 100 µM
TGI (HOP-62 NSCLC): > 100 µM
TGI (HOP-92 NSCLC): > 100 µM
TGI (HS 578T breast): > 100 µM
TGI (HT29 colon): > 100 µM
TGI (IGROV1 ovarian): > 100 µM
TGI (KM12 colon): > 100 µM
TGI (LOX IMVI melanoma): > 100 µM
TGI (M14 melanoma): > 100 µM
TGI (MCF7 breast): > 100 µM
TGI (MDA-MB-231 breast): > 100 µM
TGI (MDA-MB-435): > 100 µM
TGI (MDA-N): > 100 µM
TGI (MOLT-4 leukemia): 72.1 µM
TGI (NCI-H23 lung): > 100 µM
TGI (NCI-H460 lung): > 100 µM
TGI (NCI-H522 lung): > 100 µM
TGI (NCI/ADR-RES ovarian): > 100 µM
TGI (OVCAR-3 ovarian): > 100 µM
TGI (OVCAR-4 ovarian): > 100 µM
TGI (OVCAR-5 ovarian): > 100 µM
TGI (OVCAR-8 ovarian): > 100 µM
TGI (PC-3 prostate): > 100 µM
TGI (RPMI-8226 leukemia): > 100 µM
TGI (SF-268 CNS): > 100 µM
TGI (SF-295 CNS): > 100 µM
TGI (SF-539 CNS): > 100 µM
TGI (SK-MEL-2 melanoma): > 100 µM
TGI (SK-MEL-28 melanoma): > 100 µM
TGI (SK-MEL-5 melanoma): > 100 µM
TGI (SN12C renal): > 100 µM
TGI (SNB-19 CNS): > 100 µM
TGI (SNB-75 CNS): > 100 µM
TGI (SR leukemia): > 100 µM
TGI (SW-620 colon): > 100 µM
TGI (T-47D breast): > 100 µM
TGI (TK-10 renal): > 100 µM
TGI (U251 CNS): > 100 µM
TGI (UACC-257 melanoma): > 100 µM
TGI (UACC-62 melanoma): > 100 µM
TGI (UO-31 renal): > 100 µM

O=C(NC(Nc1ccc(F)c(Cl)c1)(C(F)(F)F)C(F)(F)F)C(C(F)(F)F)C(F)(F)F
TGI (786-0 renal): > 100 µM
TGI (A498 renal): > 100 µM
TGI (A549 NSCLC): > 100 µM
TGI (ACHN renal): 36.9 µM
TGI (CAKI-1 renal): > 100 µM
TGI (CCRF-CEM leukemia): 73.9 µM
TGI (COLO 205 colon): 74.4 µM
TGI (DU-145 prostate): > 100 µM
TGI (EKVX NSCLC): > 100 µM
TGI (HCC-2998 colon): > 100 µM
TGI (HCT-116 colon): 41.7 µM
TGI (HCT-15 colon): > 100 µM
TGI (HL-60(TB) leukemia): 44.6 µM
TGI (HOP-62 NSCLC): > 100 µM
TGI (HOP-92 NSCLC): > 100 µM
TGI (HS 578T breast): 64.7 µM
TGI (HT29 colon): 67.9 µM
TGI (IGROV1 ovarian): 33.4 µM
TGI (K-562 leukemia): 77.1 µM
TGI (KM12 colon): > 100 µM
TGI (LOX IMVI melanoma): 29.9 µM
TGI (M14 melanoma): > 100 µM
TGI (MALME-3M melanoma): 62 µM
TGI (MCF7 breast): > 100 µM
TGI (MDA-MB-231 breast): 78.9 µM
TGI (MDA-MB-435): > 100 µM
TGI (MDA-N): > 100 µM
TGI (MOLT-4 leukemia): 57 µM
TGI (NCI-H226 lung): 64.7 µM
TGI (NCI-H23 lung): 67.1 µM
TGI (NCI-H460 lung): > 100 µM
TGI (NCI-H522 lung): 44.8 µM
TGI (NCI/ADR-RES ovarian): 63.4 µM
TGI (OVCAR-3 ovarian): > 100 µM
TGI (OVCAR-4 ovarian): 88.9 µM
TGI (OVCAR-5 ovarian): 78.1 µM
TGI (OVCAR-8 ovarian): > 100 µM
TGI (PC-3 prostate): > 100 µM
TGI (RPMI-8226 leukemia): 66.8 µM
TGI (RXF 393 renal): 63.4 µM
TGI (SF-268 CNS): > 100 µM
TGI (SF-295 CNS): > 100 µM
TGI (SF-539 CNS): 48.7 µM
TGI (SK-MEL-2 melanoma): 44.5 µM
TGI (SK-MEL-28 melanoma): > 100 µM
TGI (SK-MEL-5 melanoma): 81.3 µM
TGI (SK-OV-3 ovarian): > 100 µM
TGI (SN12C renal): > 100 µM
TGI (SNB-19 CNS): > 100 µM
TGI (SR leukemia): > 100 µM
TGI (SW-620 colon): > 100 µM
TGI (T-47D breast): > 100 µM
TGI (TK-10 renal): > 100 µM
TGI (U251 CNS): > 100 µM
TGI (UACC-257 melanoma): > 100 µM
TGI (UO-31 renal): 59.1 µM

From PubChem BioAssay (NCI)
